Literature values in patent US8022179B2 (priority 2005, dated 2011).

Tested on: wrinkles
Conditions: in vivo; cited from earlier work

ARGIRELINE
wrinkle reduction: affords wrinkle reduction in certain cases
